According to patent US6737383B1, “Herbicidal oxadiazolidines” (priority 1999, dated 2004):

How the values were obtained:
[1] = system: blackgrass; assay: Test B pre/postemergence blackgrass; type: in vivo, Alopecurus myosuroides
Procedure, shortened: (§1)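 Herbicidal effect was estimated by eye on a ten-point control scale after plants spent twelve to sixteen days in a greenhouse following soil or foliar treatment. Foliar sprays targeted plants at one to four leaves; all doses were formulated in a non-phytotoxic solvent with surfactant.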

[2] = system: rice; assay: Test B flood test rice; type: in vivo, Oryza sativa
Procedure, shortened: (§2)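 Each value is a visual injury score relative to controls, with 10 meaning complete control and 0 no effect. Evaluation took place twelve to sixteen days after the 2-leaf-stage plants were treated and kept in the greenhouse.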

[3] = system: rape; assay: Test B pre/postemergence rape; type: in vivo, Brassica napus
Procedure, shortened: as §1

[4] = system: wheat; assay: Test B pre/postemergence wheat; type: in vivo, Triticum aestivum; conditions: Preemergence
Procedure, shortened: as §1

[5] = system: smallflower flatsedge; assay: Test B flood test smallflower flatsedge; type: in vivo, Cyperus difformis
Procedure, shortened: as §2

[6] = system: sugar beet; assay: Test B pre/postemergence sugar beet; type: in vivo, Beta vulgaris; conditions: Preemergence
Procedure, shortened: as §1

[7] = system: cocklebur; assay: Test B pre/postemergence cocklebur; type: in vivo, Xanthium strumarium
Procedure, shortened: as §1

[8] = system: bedstraw; assay: Test B pre/postemergence bedstraw; type: in vivo, Galium aparine
Procedure, shortened: as §1

[9] = system: wild oat; assay: Test B pre/postemergence wild oat; type: in vivo, Avena fatua; conditions: Preemergence
Procedure, shortened: as §1

[10] = system: duck salad; assay: Test B flood test duck salad; type: in vivo, Heteranthera limosa
Procedure, shortened: as §2

[11] = system: pigweed; assay: Test B pre/postemergence pigweed; type: in vivo, Amaranthus retroflexus
Procedure, shortened: as §1

[12] = system: soybean; assay: Test B pre/postemergence soybean; type: in vivo, Glycine max; conditions: Preemergence
Procedure, shortened: as §1

[13] = system: velvetleaf; assay: Test B pre/postemergence velvetleaf; type: in vivo, Abutilon theophrasti; conditions: Preemergence
Procedure, shortened: as §1

[14] = system: crabgrass; assay: Test B pre/postemergence crabgrass; type: in vivo, Digitaria sanguinalis
Procedure, shortened: as §1

[15] = system: corn; assay: Test B pre/postemergence corn; type: in vivo, Zea mays
Procedure, shortened: as §1

[16] = system: morningglory; assay: Test B pre/postemergence morningglory; type: in vivo, Ipomoea hederacea
Procedure, shortened: as §1

[17] = system: giant foxtail; assay: Test B pre/postemergence giant foxtail; type: in vivo, Setaria faberii
Procedure, shortened: as §1

[18] = system: surinam grass; assay: Test B pre/postemergence surinam grass; type: in vivo, Brachiaria decumbens
Procedure, shortened: as §1

[19] = system: purple nutsedge; assay: Test B pre/postemergence purple nutsedge; type: in vivo, Cyperus rotundus; conditions: Postemergence
Procedure, shortened: as §1

[20] = system: bamyardgrass; assay: Test B flood test barnyardgrass; type: in vivo, Echinochloa crus-galli
Procedure, shortened: as §2

[21] = Preemergence, Rate 31 g/ha, visual rating, scale 0 to 10 (0 no effect, 10 complete control)
[22] = Preemergence, Rate 62 g/ha, scale of 0 to 10 where 0 is no effect and 10 is complete control
[23] = Preemergence, Rate 250 g/ha, scale of 0 to 10 where 0 is no effect and 10 is complete control
[24] = Rate 31 g/ha, Postemergence, scale 0 to 10
[25] = Rate 62 g/ha, Postemergence, scale of 0 to 10 where 0 is no effect and 10 is complete control
[26] = Rate 125 g/ha, Postemergence, scale 0 to 10
[27] = Rate 125 g/ha, Preemergence, scale of 0 to 10 where 0 is no effect and 10 is complete control
[28] = Rate 62 g/ha, headed Pre-emergence (flood test species), scale 0 to 10 (0 no effect, 10 complete control)
[29] = Rate 125 g/ha, Pre-emergence, flood test species, scale 0 to 10 where 0 is no effect and 10 is complete control
[30] = Rate 250 g/ha, Pre-emergence, flood-test species, scale 0 to 10, 0 is no effect, 10 is complete control
[31] = Rate 500 g/ha, Pre-emergence, flood test species, scale 0 to 10 (0 no effect, 10 complete control)
[32] = Rate 31 g/ha, visual rating, scale 0 to 10 (0 no effect, 10 complete control)
[33] = Rate 62 g/ha, scale of 0 to 10 where 0 is no effect and 10 is complete control
[34] = Rate 250 g/ha, scale of 0 to 10 where 0 is no effect and 10 is complete control
[35] = Rate 125 g/ha, scale of 0 to 10 where 0 is no effect and 10 is complete control

CCC(=O)Cn1c(=O)on(C(=O)N(c2ccc(F)cc2)C(C)C)c1=O [Compound 252]
Blackgrass plant response rating [1, 21]: 0
Blackgrass plant response rating [1, 22]: 0
Blackgrass plant response rating [1, 23]: 4
Blackgrass plant response rating [1, 24]: 0
Blackgrass plant response rating [1, 25]: 0
Blackgrass plant response rating [1, 26]: 2
Blackgrass plant response rating [1, 27]: 2
Plant response rating (0 to 10; 0 is no effect, 10 is complete control), Blackgrass ([1]; Rate 250 g/ha, Postemergence): 5
Rice plant response rating [2, 28]: 0
Rice plant response rating [2, 29]: 0
Rice plant response rating [2, 30]: 0
Rice plant response rating [2, 31]: 0
Rape plant response rating [3, 21]: 0
Rape plant response rating [3, 22]: 0
Rape plant response rating [3, 23]: 3
Rape plant response rating [3, 24]: 0
Rape plant response rating [3, 27]: 0
Plant response rating (0 to 10; 0 is no effect, 10 is complete control), Rape ([3]; Rate 250 g/ha, Postemergence): 0
Wheat plant response rating [4, 32]: 0
Wheat plant response rating [4, 33]: 0
Wheat plant response rating [4, 34]: 2
Wheat plant response rating [4, 35]: 0
S. Flatsedge plant response rating [5, 28]: 0
S. Flatsedge plant response rating [5, 29]: 0
S. Flatsedge plant response rating [5, 30]: 0
S. Flatsedge plant response rating [5, 31]: 0
Sugarbeets plant response rating [6, 32]: 0
Sugarbeets plant response rating [6, 33]: 0
Sugarbeets plant response rating [6, 34]: 3
Sugarbeets plant response rating [6, 35]: 3
Cocklebur plant response rating [7, 21]: 0
Cocklebur plant response rating [7, 22]: 0
Cocklebur plant response rating [7, 24]: 0
Cocklebur plant response rating [7, 25]: 0
Cocklebur plant response rating [7, 26]: 0
Cocklebur plant response rating [7, 27]: 0
Plant response rating (0 to 10; 0 is no effect, 10 is complete control), Cocklebur ([7]; Rate 250 g/ha, Postemergence): 0
Bedstraw plant response rating [8, 21]: 0
Bedstraw plant response rating [8, 22]: 0
Bedstraw plant response rating [8, 23]: 0
Bedstraw plant response rating [8, 24]: 0
Bedstraw plant response rating [8, 25]: 0
Bedstraw plant response rating [8, 26]: 0
Bedstraw plant response rating [8, 27]: 0
Plant response rating (0 to 10; 0 is no effect, 10 is complete control), Bedstraw ([8]; Rate 250 g/ha, Postemergence): 0
Wild oats plant response rating [9, 32]: 0
Wild oats plant response rating [9, 33]: 0
Wild oats plant response rating [9, 34]: 3
Wild oats plant response rating [9, 35]: 0
Ducksalad plant response rating [10, 28]: 0
Ducksalad plant response rating [10, 29]: 0
Ducksalad plant response rating [10, 30]: 0
Ducksalad plant response rating [10, 31]: 0
Redroot pigweed plant response rating [11, 21]: 0
Redroot pigweed plant response rating [11, 22]: 0
Redroot pigweed plant response rating [11, 23]: 0
Redroot pigweed plant response rating [11, 24]: 0
Redroot pigweed plant response rating [11, 27]: 0
Plant response rating (0 to 10; 0 is no effect, 10 is complete control), Redroot pigweed ([11]; Rate 250 g/ha, Postemergence): 0
Soybean plant response rating [12, 32]: 0
Soybean plant response rating [12, 33]: 0
Soybean plant response rating [12, 34]: 0
Soybean plant response rating [12, 35]: 0
Velvetleaf plant response rating [13, 32]: 0
Velvetleaf plant response rating [13, 33]: 0
Velvetleaf plant response rating [13, 34]: 2
Velvetleaf plant response rating [13, 35]: 0
Crabgrass plant response rating [14, 21]: 0
Crabgrass plant response rating [14, 22]: 0
Crabgrass plant response rating [14, 23]: 4
Crabgrass plant response rating [14, 24]: 0
Crabgrass plant response rating [14, 27]: 2
Plant response rating (0 to 10; 0 is no effect, 10 is complete control), Crabgrass ([14]; Rate 250 g/ha, Postemergence): 6
Corn plant response rating [15, 21]: 0
Corn plant response rating [15, 22]: 0
Corn plant response rating [15, 23]: 0
Corn plant response rating [15, 24]: 0
Corn plant response rating [15, 25]: 0
Corn plant response rating [15, 26]: 0
Corn plant response rating [15, 27]: 0
Plant response rating (0 to 10; 0 is no effect, 10 is complete control), Corn ([15]; Rate 250 g/ha, Postemergence): 0
Morningglory plant response rating [16, 21]: 0
Morningglory plant response rating [16, 22]: 0
Morningglory plant response rating [16, 23]: 0
Morningglory plant response rating [16, 24]: 2
Morningglory plant response rating [16, 27]: 0
Plant response rating (0 to 10; 0 is no effect, 10 is complete control), Morningglory ([16]; Rate 250 g/ha, Postemergence): 3
Giant foxtail plant response rating [17, 21]: 3
Giant foxtail plant response rating [17, 22]: 3
Giant foxtail plant response rating [17, 23]: 10
Giant foxtail plant response rating [17, 24]: 0
Giant foxtail plant response rating [17, 27]: 9
Plant response rating (0 to 10; 0 is no effect, 10 is complete control), Giant foxtail ([17]; Rate 250 g/ha, Postemergence): 4
B. signalgrass plant response rating [18, 21]: 0
B. signalgrass plant response rating [18, 22]: 0
B. signalgrass plant response rating [18, 23]: 0
B. signalgrass plant response rating [18, 24]: 0
B. signalgrass plant response rating [18, 25]: 0
B. signalgrass plant response rating ([18]; Rate 125 g/ha, Postemergence, scale 0 (no effect) to 10 (complete control)): 0
B. signalgrass plant response rating [18, 27]: 0
Plant response rating (0 to 10; 0 is no effect, 10 is complete control), B. signalgrass ([18]; Rate 250 g/ha, Postemergence): 0
Nutsedge plant response rating ([19]; Rate 31 g/ha, scale 0 to 10): 0
Plant response rating (0 to 10; 0 is no effect, 10 is complete control), Nutsedge ([19]; Rate 250 g/ha): 0
Barnyardgrass plant response rating [20, 28]: 0
Barnyardgrass plant response rating [20, 29]: 0
Barnyardgrass plant response rating [20, 30]: 0
Barnyardgrass plant response rating [20, 31]: 0
